What was measured:
PrP^C in T98G cells = assay type: cell-based, human; also: test concentration or dose not given here
PrP^C in IMR32 cells = assay type: cell-based, human; also: test concentration or dose not given here
T98G cells = experiment: cells; assay type: cell-based, human; settings: calcein, T98G cells
IMR32 cells = assay type: cell-based, human
[1] = "rat human hepatic microsomes", NADPH with UDPGA or PBS
For % Inhibition: Calcein (IMR32) in this document: test concentration or dose not given here.
For % Inhibition: Calcein (T98G) in this document: test concentration or dose not given here.

SMILES	% Inhibition: SPC (T98G) (PrP^C in T98G cells)	% Inhibition: SPC (IMR32) (PrP^C in IMR32 cells)	% Inhibition: Calcein (T98G) (T98G cells) [%]	% Inhibition: Calcein (IMR32) (IMR32 cells) [%]	T1/2, control incubations [1] [min]
Cc1cccc(N2CCN(C(=O)c3ccc4c(c3)OCO4)CC2)c1C [IND-0023025]	MW: 338.4 % Inhibition: SPC (IMR32): 34 Calcein: 15 SPC (T98G): 34 Calcein: 26	MW: 338.4 % Inhibition: SPC (IMR32): 34 Calcein: 15 SPC (T98G): 34 Calcein: 26	26	15	–
COc1ccc(C(NC(C)=O)c2ccc3cccnc3c2O)cc1 (centres unmarked) [IND-0058521]	MW: 322.4 % Inhibition: SPC (IMR32): 56 Calcein: 17 SPC (T98G): 49 Calcein: 3	MW: 322.4 % Inhibition: SPC (IMR32): 56 Calcein: 17 SPC (T98G): 49 Calcein: 3	3	17	–
CCS(=O)(=O)c1ncc(Cl)c(C(=O)Nc2ccccc2C)n1 [IND-0081396]	MW: 339.8 % Inhibition: SPC (IMR32): 91 Calcein: 15 SPC (T98G): −5 Calcein: −8	MW: 339.8 % Inhibition: SPC (IMR32): 91 Calcein: 15 SPC (T98G): −5 Calcein: −8	−8	15	–
CCS(=O)(=O)c1ncc(Cl)c(C(=O)Nc2ccc(F)cc2)n1 [IND-0081737]	MW: 343.8 % Inhibition: SPC (IMR32): 41 Calcein: 18 SPC (T98G): −10 Calcein: −4	MW: 343.8 % Inhibition: SPC (IMR32): 41 Calcein: 18 SPC (T98G): −10 Calcein: −4	−4	18	–
N#Cc1c(NC(=O)CCc2cccs2)sc2c1CCCC2 [IND-0082865]	MW: 316.4 % Inhibition: SPC (IMR32): 60 Calcein: 37 SPC (T98G): 51 Calcein: 17	MW: 316.4 % Inhibition: SPC (IMR32): 60 Calcein: 37 SPC (T98G): 51 Calcein: 17	17	37	–
COc1ccc(C(=O)NCc2cc(C)nc3ccccc23)cc1 [IND-0086056]	MW: 306.4 % Inhibition: SPC (IMR32): 45 Calcein: 18 SPC (T98G): 49 Calcein: 20	MW: 306.4 % Inhibition: SPC (IMR32): 45 Calcein: 18 SPC (T98G): 49 Calcein: 20	20	18	–
CC(C)c1ccc(NC(=O)Nc2cnccn2)cc1 [IND-0088907]	MW: 256.3 % Inhibition: SPC (IMR32): 4 Calcein: 9 SPC (T98G): 46 Calcein: 27	MW: 256.3 % Inhibition: SPC (IMR32): 4 Calcein: 9 SPC (T98G): 46 Calcein: 27	27	9	–
Cc1ncc2n1-c1ccc(Cl)cc1C(c1ccccc1F)=NC2 [Midazolam, reference compound]	–	–	–	–	11

Source: patent publication US20140329863A1 (priority 2011, published 2014)
